Experimental data from US9493487B2, “3-(1H-imidazo[4,5-C]pyridin-2-YL)-1H-pyrazolo[3,4-B]pyridine and therapeutic uses thereof” (Samumed, LLC, priority 2014, dated 2016).

Columns and labels:
[1] = test system: Wnt activity (Sp5-Luc reporter, SW480 colon carcinoma cells); test: Sp5-Luc Wnt reporter gene assay in SW480 colon carcinoma cells; assay type: cell-based; settings: Homo sapiens; SW480 cells stably expressing Sp5-Luc reporter; 42 h incubation; BrightGlo luminescence normalized to DMSO
Source text: The screening assay for Wnt activity is described as follows. Reporter cell lines can be generated by stably transducing cancer cell lines (e.g., colon cancer) or primary cells (e.g., IEC-6 intestinal cells) with a lentiviral construct that includes a Wnt-responsive promoter driving expression of the firefly luciferase gene.
SW480 colon carcinoma cells were transduced with a lentiviral vector expressing luciferase with a human Sp5 promoter consisting of a sequence of eight TCF/LEF binding sites. SW480 cells stably expressing the Sp5-Luc reporter gene and a hygromycin resistance gene were selected by treatment with 150 μg/ml of hygromycin for 7 days. These stably transduced SW480 cells were expanded in cell culture and used for all further screening activities. For Sp5-Luc reporter gene assays, the cells were plated at 10,000 cells/well in 96-well plates with growth medium containing 10% fetal calf serum and incubated overnight at 37° C. and 5% CO2. Each compound was dissolved in DMSO as a 10 mM stock in standard j-vials and used to prepare compound source plates in dose-response format with 3-fold serial dilutions and a 10 mM top concentration. Compound transfer from serially diluted source plates to assay plates containing the cells was accomplished using a pintool (Multimek 96, Beckman equipped with V&P Scientific FP1S50H pins) based liquid handling protocol. This protocol used a slotted pin to transfer 50 nl of compound from a source plate well to an assay plate well containing 50 μl of cells in growth medium. […] Control wells received 50 nl of DMSO treatment for normalization and calculating IC50 values. The treated cells were incubated at 37° C. and 5% CO2 for an additional forty-two hours. Following incubation, the growth medium was removed and 50 μl of BrightGlo luminescence reagent (Promega) was added to each well of the 96-well assay plates. The plates were placed on an orbital shaker for 5 min and then luminescence was quantified on the Victor3 (Perkin Elmer) plate reader. Readings were normalized to DMSO only treated cells, and normalized activities were utilized for IC50 calculations using the dose-response log (inhibitor) vs. response-variable slope (four parameters) nonlinear regression feature available in GraphPad Prism 5.0 or 6.0.

[2] = test system: primary human fibroblasts derived from IPF patients (LL29 cells); test: Inhibition of TGF-β1-induced fibrosis (αSMA staining) in primary human fibroblasts from IPF patients; assay type: cell-based; settings: Fibroblast, 96 h, TGF-β1 20 ng/mL, 4 days, 11-point dose-response 10 μM to 1.87 nM
Source text: The above synthesized compounds were screened using primary human fibroblasts (derived from IPF patients) treated with TGF-β1 to determine their ability to inhibit the fibrotic process.
Primary human fibroblasts derived from IPF patients (LL29 cells) [^1Xiaoqiu Liu, et. al., “Fibrotic Lung Fibroblasts Show Blunted Inhibition by cAMP Due to Deficient cAMP Response Element-Binding Protein Phosphorylation”, Journal of Pharmacology and Experimental Therapeutics (2005), 315(2), 678-687; ^2Watts, K. L., et. al., “RhoA signaling modulates cyclin D1 expression in human lung fibroblasts; implications for idiopathic pulmonary fibrosis”, Respiratory Research (2006), 7(1), 88] were obtained from American Type Culture Collection (ATCC) and expanded in F12 medium supplemented with 15% Fetal Bovine Serum and Penicillin/Streptomycin.
Each compound was dissolved in DMSO as a 10 mM stock and used to prepare compound source plates. Serial dilution (1:2, 11-point dose-response curves from 10 μM to 1.87 nM) and compound transfer was performed using the ECHO 550 (Labcyte, Sunnyvale, Calif.) into 384-well clear bottom assay plates (Greiner Bio-One) with appropriate DMSO backfill for a final DMSO concentration of 0.1%. LL29 cells were plated at 1,500 cells/well in 80 μl/well F12 medium supplemented with 1% Fetal Bovine Serum. One hour after addition of the cells, TGF-β1 (Peprotech; 20 ng/mL) was added to the plates to induce fibrosis (ref. 1 and 2 above). Wells treated with TGF-β1 and containing DMSO were used as controls. Cells were incubated at 37° C. and 5% CO2 for 4 days. Following incubation for 4 days, SYTOX green nucleic acid stain (Life Technologies [Thermo Fisher Scientific]) was added to the wells at a final concentration of 1 uM and incubated at room temperature for 30 min. Cells were then fixed using 4% formaldehyde (Electron Microscopy Sciences), washed 3 times with PBS followed by blocking and permeabilization using 3% Bovine Serum Albumin (BSA; Sigma) and 0.3% Triton X-100 (Sigma) in PBS. Cells were then stained with antibody specific to α-smooth muscle actin (αSMA; Abcam) (ref 1 and 2 above) in 3% Bovine Serum Albumin (BSA; Sigma) and 0.3% Triton X-100 (Sigma) in PBS, and incubated overnight at 4° C. Cells were then washed 3 times with PBS, followed by incubation with Alexa Flor-647 conjugated secondary antibody (Life Technologies [Thermo Fisher Scientific]) and DAPI at room temperature for 1 hour. Cells were then washed 3 times with PBS and plates were sealed for imaging. αSMA staining was imaged by excitation at 630 nm and emission at 665 nm and quantified using the Compartmental Analysis program on the CellInsight CX5 (Thermo Scientific). Dead or apoptotic cells were excluded from analysis based on positive SYTOX green staining. % of total cells positive for αSMA were counted in each well and normalized to the average of 11 wells treated with TGF-β1 on the same plate using Dotmatics' Studies Software. The normalized averages (fold change over untreated) of 3 replicate wells for each compound concentration were used to create dose-responses curves and EC50 values were calculated using non-linear regression curve fit in the Dotmatics' Studies Software. The EC50 values are reported.

Compound: CCC(=O)Nc1cncc(-c2cnc3[nH]nc(-c4nc5c(N6CCCCC6)nccc5[nH]4)c3c2)c1 [Compound 157, N-(5-(3-(4-(Piperidin-1-yl)-1H-imidazo[4,5-c]pyridin-2-yl)-1H-pyrazolo[3,4-b]pyridin-5-yl)pyridin-3-yl)propionamide]
- IC50 [1]: 0.148 µM
- EC50 [2]: 0.432 µM

Compound: CN(C)c1cncc(-c2cnc3[nH]nc(-c4nc5c(N6CCCCC6)nccc5[nH]4)c3c2)c1 [Compound 163, N,N-Dimethyl-5-(3-(4-(piperidin-1-yl)-1H-imidazo[4,5-c]pyridin-2-yl)-1H-pyrazolo[3,4-b]pyridin-5-yl)pyridin-3-amine]
- IC50 [1]: 0.777 µM
- EC50 [2]: 0.009 µM

Compound: CN(C)Cc1cncc(-c2cnc3[nH]nc(-c4nc5c(N6CCCCC6)nccc5[nH]4)c3c2)c1 [Compound 169, N,N-Dimethyl-1-(5-(3-(4-(piperidin-1-yl)-1H-imidazo[4,5-c]pyridin-2-yl)-1H-pyrazolo[3,4-b]pyridin-5-yl)pyridin-3-yl)methanamine]
- IC50 [1]: 2.27 µM
- EC50 [2]: 0.888 µM

Compound: O=C(Nc1cncc(-c2cnc3[nH]nc(-c4nc5c(N6CCCCC6)nccc5[nH]4)c3c2)c1)C1CC1 [Compound 175, N-(5-(3-(4-(Piperidin-1-yl)-1H-imidazo[4,5-c]pyridin-2-yl)-1H-pyrazolo[3,4-b]pyridin-5-yl)pyridin-3-yl)cyclopropanecarboxamide]
- IC50 [1]: 0.413 µM
- EC50 [2]: 0.859 µM

Compound: FC1(F)CCN(Cc2cncc(-c3cnc4[nH]nc(-c5nc6c(N7CCCCC7)nccc6[nH]5)c4c3)c2)C1 [Compound 181, 5-(5-((3,3-Difluoropyrrolidin-1-yl)methyl)pyridin-3-yl)-3-(4-(piperidin-1-yl)-1H-imidazo[4,5-c]pyridin-2-yl)-1H-pyrazolo[3,4-b]pyridine]
- IC50 [1]: 0.243 µM
- EC50 [2]: 1.13 µM

Compound: Cc1cn(-c2nccc3[nH]c(-c4n[nH]c5ncc(-c6cncc(CN7CCCC7)c6)cc45)nc23)cn1 [Compound 196, 3-(4-(4-Methyl-1H-imidazol-1-yl)-1H-imidazo[4,5-c]pyridin-2-yl)-5-(5-(pyrrolidin-1-ylmethyl)pyridin-3-yl)-1H-pyrazolo[3,4-b]pyridine]
- IC50 [1]: 0.579 µM
- EC50 [2]: ≥ 9.99 µM

Compound: CN1CCN(c2nccc3[nH]c(-c4n[nH]c5ncc(-c6cncc(N)c6)cc45)nc23)CC1 [Compound 211, 5-(3-(4-(4-Methylpiperazin-1-yl)-1H-imidazo[4,5-c]pyridin-2-yl)-1H-pyrazolo[3,4-b]pyridin-5-yl)pyridin-3-amine]
- IC50 [1]: 0.334 µM
- EC50 [2]: ≥ 9.99 µM

Compound: CN1CCN(c2nccc3[nH]c(-c4n[nH]c5ncc(-c6cncc(CN7CCCCC7)c6)cc45)nc23)CC1 [Compound 223, 3-(4-(4-Methylpiperazin-1-yl)-1H-imidazo[4,5-c]pyridin-2-yl)-5-(5-(piperidin-1-ylmethyl)pyridin-3-yl)-1H-pyrazolo[3,4-b]pyridine]
- IC50 [1]: > 10 µM
- EC50 [2]: ≥ 9.99 µM

Compound: Cc1ccncc1-c1cnc2[nH]nc(-c3nc4c(-c5ccsc5)nccc4[nH]3)c2c1 [Compound 239, 5-(4-Methylpyridin-3-yl)-3-(4-(thiophen-3-yl)-1H-imidazo[4,5-c]pyridin-2-yl)-1H-pyrazolo[3,4-b]pyridine]
- IC50 [1]: 0.018 µM
- EC50 [2]: 0.024 µM

Compound: O=C(Nc1cncc(-c2cnc3[nH]nc(-c4nc5c(-c6ccsc6)nccc5[nH]4)c3c2)c1)c1ccccc1 [Compound 245, N-(5-(3-(4-(Thiophen-3-yl)-1H-imidazo[4,5-c]pyridin-2-yl)-1H-pyrazolo[3,4-b]pyridin-5-yl)pyridin-3-yl)benzamide]
- IC50 [1]: 0.102 µM
- EC50 [2]: 0.28 µM

Compound: c1ccc(CNCc2cncc(-c3cnc4[nH]nc(-c5nc6c(-c7ccsc7)nccc6[nH]5)c4c3)c2)cc1 [Compound 257, N-Benzyl-1-(5-(3-(4-(thiophen-3-yl)-1H-imidazo[4,5-c]pyridin-2-yl)-1H-pyrazolo[3,4-b]pyridin-5-yl)pyridin-3-yl)methanamine]
- IC50 [1]: 0.309 µM
- EC50 [2]: 0.244 µM

Compound: c1cc2[nH]c(-c3n[nH]c4ncc(-c5cncc(CNCC6CCCC6)c5)cc34)nc2c(-c2ccoc2)n1 [Compound 284, 1-Cyclopentyl-N-((5-(3-(4-(furan-3-yl)-1H-imidazo[4,5-c]pyridin-2-yl)-1H-pyrazolo[3,4-b]pyridin-5-yl)pyridin-3-yl)methyl)methanamine]
- IC50 [1]: 0.875 µM
- EC50 [2]: 1.18 µM

Compound: CCC(=O)Nc1cncc(-c2cnc3[nH]nc(-c4nc5c(-c6cccs6)nccc5[nH]4)c3c2)c1 [Compound 287, N-(5-(3-(4-(Thiophen-2-yl)-1H-imidazo[4,5-c]pyridin-2-yl)-1H-pyrazolo[3,4-b]pyridin-5-yl)pyridin-3-yl)propionamide]
- IC50 [1]: 0.0229 µM
- EC50 [2]: 0.578 µM

Compound: CN(C)c1cncc(-c2cnc3[nH]nc(-c4nc5c(-c6cccs6)nccc5[nH]4)c3c2)c1 [Compound 293, N,N-Dimethyl-5-(3-(4-(thiophen-2-yl)-1H-imidazo[4,5-c]pyridin-2-yl)-1H-pyrazolo[3,4-b]pyridin-5-yl)pyridin-3-amine]
- IC50 [1]: 0.0371 µM
- EC50 [2]: 0.009 µM

Compound: CN(C)Cc1cncc(-c2cnc3[nH]nc(-c4nc5c(-c6cccs6)nccc5[nH]4)c3c2)c1 [Compound 299, N,N-Dimethyl-1-(5-(3-(4-(thiophen-2-yl)-1H-imidazo[4,5-c]pyridin-2-yl)-1H-pyrazolo[3,4-b]pyridin-5-yl)pyridin-3-yl)methanamine]
- IC50 [1]: 1.44 µM
- EC50 [2]: ≥ 9.99 µM

Compound: FC1(F)CCN(Cc2cncc(-c3cnc4[nH]nc(-c5nc6c(-c7cccs7)nccc6[nH]5)c4c3)c2)C1 [Compound 311, 5-(5-((3,3-Difluoropyrrolidin-1-yl)methyl)pyridin-3-yl)-3-(4-(thiophen-2-yl)-1H-imidazo[4,5-c]pyridin-2-yl)-1H-pyrazolo[3,4-b]pyridine]
- IC50 [1]: 0.0228 µM
- EC50 [2]: 0.174 µM

Compound: CC(C)CC(=O)Nc1cncc(-c2cnc3[nH]nc(-c4nc5c(-c6ccc(F)s6)nccc5[nH]4)c3c2)c1 [Compound 314, N-(5-(3-(4-(5-Fluorothiophen-2-yl)-1H-imidazo[4,5-c]pyridin-2-yl)-1H-pyrazolo[3,4-b]pyridin-5-yl)pyridin-3-yl)-3-methylbutanamide]
- IC50 [1]: 0.0063 µM
- EC50 [2]: 0.009 µM

Compound: CC(C)(C)C(=O)Nc1cncc(-c2cnc3[nH]nc(-c4nc5c(-c6ccc(F)s6)nccc5[nH]4)c3c2)c1 [Compound 320, N-(5-(3-(4-(5-Fluorothiophen-2-yl)-1H-imidazo[4,5-c]pyridin-2-yl)-1H-pyrazolo[3,4-b]pyridin-5-yl)pyridin-3-yl)pivalamide]
- IC50 [1]: 0.0093 µM
- EC50 [2]: 0.009 µM
